“Also recorded” adds a separate entry of the source. Like-named read-outs stand apart in the source and are kept apart here.
What was measured:
purified sheep brain GS [1] = test: Purified sheep brain GS activity (Meister's method, gamma-glutamylhydroxamate formation); assay type: biochemical; details: for effect on GS subunit (monomer) activity: in presence of 2β-ME (DTT for tianeptine)
Wistar rats [2] = test: Open field task in corticosterone-administered rats; assay type: in vivo; details: for resting time in the open field task: day 15, corticosterone 35 mg/kg s.c., versus PCB and Control
Wistar rats [3] = test: Forced swimming test in corticosterone-administered rats; assay type: in vivo
CA3 pyramidal neurons = test: Surface of CA3 pyramidal neurons (Golgi) in corticosterone-administered rats; assay type: in vivo, Wistar rats; details: 21 days
[4] = system: glucocorticoid receptor (GR); test: Brain glucocorticoid receptor expression by ELISA in corticosterone-administered rats; assay type: in vivo, Wistar rats; details: for brain GR expression: GF 0.1 and 3 mg/kg, MS 0.5, 15 and 45 mg/kg, tianeptine 0.5 mg/kg, versus PCB
[5] = Adrenal weight in corticosterone-administered rats; assay type: in vivo, Wistar rats; details: 21 days, versus PCB
brain GS [6] = biological target: T1, brain GS (Mus musculus, UniProt P15105); details: 24 h after single i.p.
brain GS [7] = biological target: T1, brain GS; details: i.p. 7 days
GS [8] = biological target: T2, GS (Rattus norvegicus, UniProt P09606); details: for lung GS activity: versus PCB
GS [9] = details: rat, in vivo
GS [10] = details: literature (Meister 1985; Eisenberg et al., 2000); cited from earlier work
pathogenic mycobacteria = details: cited from earlier work
rat lung GS protein = details: cited from earlier work
bacterial GS = bacterial GS (Mycobacterium tuberculosis, UniProt P9WN39); details: cited from earlier work
M. tuberculosis = details: MS with isoniazid (INH); cited from earlier work
purified sheep brain GS [11] = details: Rueppel et al., 1972; cited from earlier work
[12] = Adrenal weight of rats administered methylprednisolone; assay type: in vivo, Wistar rats
Experimental: Wistar rats were administered during 21 days once a day with methyprednisolone (5 mg/kg i.p.) plus GF (0.001, 0.01, 0.1 mg/kg), NF (1 and 10 mg/kg) or vehicle (PCB; i.p). Twenty-four hours after the last administrations, they were euthanatized. A complete necropsy was performed and main organs weighted.

Wistar rats [13] = test: PTZ-induced seizures; assay type: in vivo
GS [14] = biological target: T3, GS (Mus musculus, UniProt P15105); details: 24 h after single i.p.
GS [15] = biological target: T2, GS; details: GF 1 mg/kg, tianeptine 10 mg/kg, methyprednisolone 5 mg/kg i.p.
[16] = in vivo, cited from earlier work
mice [17] = details: cited from earlier work
rats [18] = details: rat, in vivo; cited from earlier work
dogs = details: based on decreased body weight at higher doses; cited from earlier work
rabbits = details: rabbit, in vivo; cited from earlier work
rats [19] = details: rat, in vivo; cited from earlier work; remark: listed apart in the source
mice [20] = details: cited from earlier work; remark: listed apart in the source
rats [21] = details: cited from earlier work
GS [22] = biological target: T3, GS; assay type: in vivo, BALB/c mice; parameters: from tissue; host or cells: mouse brain (whole brain, cortex, hippocampus, thalamus/hypothalamus); details: 24 h after single i.p.; NF 10 and 100 mg/kg, GF 1 mg/kg
Experimental: Cortex, hippocampi and thalamus/hypothalamus were carefully isolated immediately after euthanasia. Membranes were prepared and the activity of GS determined in these different structures (as mentioned above for the whole brain).

GS [23] = biological target: T2, GS; assay type: in vivo, Wistar rats; parameters: Wistar rat brain homogenates were incubated with naftazone; from tissue; host or cells: Wistar rat brain homogenate or membranes; in A19 also liver and lungs
[24] = day 19, corticosterone 35 mg/kg s.c., versus PCB and Control
[25] = 21 days, versus PCB and Control
[26] = GF 3 mg/kg, tianeptine 15 mg/kg

T2 sequence (P09606 2-373 limits assumed): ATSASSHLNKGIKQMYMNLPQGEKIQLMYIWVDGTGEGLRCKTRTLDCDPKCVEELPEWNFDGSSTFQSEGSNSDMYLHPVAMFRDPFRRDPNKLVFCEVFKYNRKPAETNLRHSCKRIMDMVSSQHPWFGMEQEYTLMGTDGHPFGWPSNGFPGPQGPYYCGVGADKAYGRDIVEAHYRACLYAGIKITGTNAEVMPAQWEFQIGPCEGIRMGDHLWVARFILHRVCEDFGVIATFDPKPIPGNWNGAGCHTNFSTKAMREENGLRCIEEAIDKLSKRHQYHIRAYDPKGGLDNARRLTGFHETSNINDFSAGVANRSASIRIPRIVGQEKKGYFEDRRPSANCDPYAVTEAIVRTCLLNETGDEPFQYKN
T1 sequence (P15105 2-373 limits assumed): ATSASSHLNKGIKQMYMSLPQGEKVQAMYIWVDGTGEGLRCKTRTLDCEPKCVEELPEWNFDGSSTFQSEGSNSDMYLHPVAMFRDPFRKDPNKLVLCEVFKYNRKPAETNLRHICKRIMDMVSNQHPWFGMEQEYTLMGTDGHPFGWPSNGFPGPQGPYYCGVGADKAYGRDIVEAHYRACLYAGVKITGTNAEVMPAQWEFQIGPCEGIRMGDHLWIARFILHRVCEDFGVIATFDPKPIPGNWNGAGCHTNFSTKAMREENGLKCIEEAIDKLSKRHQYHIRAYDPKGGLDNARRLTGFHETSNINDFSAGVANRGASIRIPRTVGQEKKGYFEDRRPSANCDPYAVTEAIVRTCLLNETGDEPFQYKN
T3 sequence (P15105 2-373 limits assumed): as above
Sequence of bacterial GS (P9WN39 whole entry): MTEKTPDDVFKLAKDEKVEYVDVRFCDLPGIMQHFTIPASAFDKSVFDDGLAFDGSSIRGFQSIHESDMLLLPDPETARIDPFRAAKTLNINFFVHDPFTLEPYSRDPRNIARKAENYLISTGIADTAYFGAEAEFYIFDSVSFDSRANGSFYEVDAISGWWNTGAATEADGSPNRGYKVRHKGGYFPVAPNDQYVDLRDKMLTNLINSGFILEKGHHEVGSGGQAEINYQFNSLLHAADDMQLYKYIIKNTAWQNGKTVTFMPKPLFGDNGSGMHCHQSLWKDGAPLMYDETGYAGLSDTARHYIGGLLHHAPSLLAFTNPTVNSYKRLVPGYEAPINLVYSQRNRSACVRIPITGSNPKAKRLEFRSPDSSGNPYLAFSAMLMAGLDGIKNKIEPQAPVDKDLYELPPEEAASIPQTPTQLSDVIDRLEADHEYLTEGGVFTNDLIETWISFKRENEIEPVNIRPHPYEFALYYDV

In the case of `CS(=N)(=O)CC[C@H](N)C(=O)O` (stereo partly drawn) [MS, 2-amino-4-(S-methylsulfonimidosyl)butanoic acid], the type of competition (purified sheep brain GS [1]) is reported as “competitive with L-glutamine”, the “effect on GS subunit (monomer) activity” value (purified sheep brain GS [1]) is reported as “inhibit GS activity at “high” concentrations” and the “dose relation of the increase in resting time” value (Wistar rats [2]; day 15) is reported as “proportional to the dose”. For the same compound, the “resting time in the open field task” value (Wistar rats [2]) was “higher”, the “immobility in the forced swimming test” value (Wistar rats [3]; [24]) was “comparable or lower” and the “dose with the best protective effects on CA3 pyramidal neurons” value (CA3 pyramidal neurons) was 15 mg/kg. For the same compound, the “brain GR expression” value [4] was “higher”, the “dose relation of the increase in GR expression” value ([4]; rat, in vivo) was “proportional to the dose” and the adrenal weight [5] was “higher”. For the same compound, the “dose relation of effects on GS activity and GS expression” value (from here on “dose relation of effects”) (brain GS [6]) was “dose-dependent”, the “dose with the highest GS activity” value (brain GS [6]) was 0.312 mg/kg and the “whole brain GS activity” value (brain GS [6]; 0.078-20 mg/kg) was “increase GS activity”. The “whole brain GS activity” value (brain GS [7]; MS 0.5, 15, 45 mg/kg) was “decreased GS activity proportionally the dose”, the “dose relation of effects” value (brain GS [7]) was “dose-dependent” and the “lung GS activity” value (GS [8]; 21 days, most rats) was “decrease in lung GS activity”. The “brain GS activity” value (GS [8]; [25]) was “dose-dependent decrease”, the “liver GS activity” value (GS [8]; [25]) was “clear decrease” and the “brain GS activity” value (GS [8]; MS at the and 45 mg/kg doses) was “lowest GS activities”. The “brain GS expression” value (GS [9]) was “higher”, the “nature of the binding to GS” value (GS [10]) was “non-selective, irreversible GS ligand; also recorded: bind GS irreversibly” and the “effect on mycobacterium growth” value (pathogenic mycobacteria) was “block the growth”. For the same compound, the “augmentation of rat lung GS protein levels” value (rat lung GS protein; MS 100 mg/kg) was 4 fold, the “augmentation of rat lung GS protein levels” value (rat lung GS protein; combination MS 100 mg/kg and dexamethasone 0.5 mg/kg) was 12 fold and the “greater sensitivity to MS of bacterial GS than of mammalian GS” value (bacterial GS) was 100 fold. The “reduction of CFU in guinea pig organs below the level attained with INH alone” value (M. tuberculosis) was about 1.5 log units.

For `CC(C)NNC(=O)c1ccncc1` [iproniazid, Iproniazid], the “tested on GS activity: ligand or not” value (purified sheep brain GS [1]) is listed as “GS ligands”, the “effect on GS subunit (monomer) activity” value (purified sheep brain GS [1]) is listed as “inhibit GS activity at “high” concentrations” and the type of competition (purified sheep brain GS [11]) is listed as “competes with hydroxylamine on the NH4 site”.

For `CP(=O)(O)CCC(N)C(=O)O` (racemic) [GF, ammonium 4-[hydroxy (methyl)phosphinoyl]-DL-homoalaninate], the type of competition (purified sheep brain GS [1]) was “competitive with L-glutamine”, the “effect on GS activity at “high” concentrations” value (purified sheep brain GS [1]; in absence of 2βME) was “inhibit GS activity at “high” concentrations” and the ““low concentrations” that activate GS activity” value (purified sheep brain GS [1]; in absence of 2βME) was 10^−4 to 10^−11 M. The “effect on GS subunit (monomer) activity” value (purified sheep brain GS [1]) was “inhibit GS activity at “high” concentrations”, the “resting time in the open field task” value (Wistar rats [2]) was “higher” and the “immobility in the forced swimming test” value (Wistar rats [3]; GF 0.1 mg/kg, tianeptine 0.5 mg/kg) was “clear decrease in immobility”. The “immobility in the forced swimming test” value (Wistar rats [3]; [24]) was “comparable or lower”, the “effects of corticosterone on CA3 pyramidal neurons” value (CA3 pyramidal neurons; GF 15 mg/kg) was “failed to blunt the effects of corticosterone” and the “effects of corticosterone on CA3 pyramidal neurons” value (CA3 pyramidal neurons; GF 0.1 and 3 mg/kg) was “prevent in part the deleterious effects of corticosterone”. For the same compound, the “brain GR expression” value [4] was “higher”, the adrenal weight [5] was “higher” and the methylprednisolone-induced adrenal atrophy ([12]; GF 0.001 mg/kg) was “fully prevented”. For the same compound, the adrenal weight ([12]; GF 0.001, 0.01, 0.1 mg/kg, NF 1 and 10 mg/kg, methyprednisolone 5 mg/kg i.p., 21 days, versus PCB) was “higher”, the “dose relation of the effect on adrenal weight” value ([12]; rat, in vivo) was “non dose-dependent effect” and the “seizure occurrence after PTZ administration” value (Wistar rats [13]; GF 0.5, 5, 25 mg/kg, tianeptine 1, 10, 50 mg/kg i.p. 1 h before PTZ 50 mg/kg i.p.) was “decreased seizure occurrence”. The “dose relation of the effect on seizures” value (Wistar rats [13]; rat, in vivo) was “not dose-dependent”, the “brain GS expression” value (brain GS [7]; [26]) was “increased also GS expression” and the “whole brain GS activity” value (brain GS [7]; [26]) was “increase GS activity”. For the same compound, the “dose relation of effects” value (brain GS [7]) was “dose-dependent”, the “whole brain GS activity at higher doses” value (brain GS [7]; doses above GF 3 mg/kg, tianeptine 15 mg/kg) was “decreased GS activity” and the “GS activity in the hippocampus” value (GS [14]) was “dose-dependently increased GS activity”. The “GS activity in the thalamus/hypothalamus” value (GS [14]) was “decreased GS activity”, the “GS activity in the cortex” value (GS [14]; GF 0.1, 3, 15 mg/kg, tianeptine 0.5, 15, 45 mg/kg) was “no significant effect” and the “lung GS activity” value (GS [8]; 21 days, most rats) was “decrease in lung GS activity”. For the same compound, the “brain GS activity” value (GS [8]; [25]) was “dose-dependent decrease”, the “liver GS activity” value (GS [8]; [25]) was “clear decrease” and the “lung GS activity” value (GS [8]; [26]) was “remained in the same range”. For the same compound, the “brain GS expression” value (GS [9]) was “higher”, the “GS activity in the cortex” value (GS [15]) was “Trend to an Decrease” and the “GS activity in the hippocampus” value (GS [15]) was “Increase of GS Activity”. The “GS activity in the thalamus/hypothalamus” value (GS [15]; 1 h and 24 h after last administration) was “Decreased GS Activity”, the “nature of the binding to GS” value (GS [10]) was “selective, irreversible GS ligand; also recorded: bind GS irreversibly” and the “effect on mycobacterium growth” value (pathogenic mycobacteria) was “only a very minor inhibitory effect”. For the same compound, the “part of an oral dose eliminated in the urine” value ([16]; po) was 10-15%, the “main metabolite found in urine and in faeces” value [16] was 3-[hydroxy(methyl)phosphinoyl] propionic acid and the NOAEL (mice [17]; based upon increased plasma potassium at next highest dose) was 80 ppm. For the same compound, the NOAEL (mice [17]; females) was 19 mg/kg bw/day, the NOAEL (mice [17]; males) was 17 mg/kg bw/day and the “dose levels with effects on kidney weight” value (rats [18]) was at least 0.52 mg/kg bw/day. For the same compound, the NOAEL (dogs) was 4.5 mg/kg bw/day, the “NOAEL for maternal and embryo/fetal toxicity” value (rabbits) was 6.3 mg/kg bw/day and the teratogenicity (rabbits) was “not teratogenic”. For the same compound, the “NOAEL for maternal and embryo/fetal toxicity” value (rats [19]) was 2.2 mg/kg bw/day, the teratogenicity (rats [19]) was “not teratogenic” and the NOAEL (mice [20]; increased mortality at higher dietary concentrations) was 80 ppm. The NOAEL (mice [20]; mouse, in vivo) was 11 mg/kg bw/day, the carcinogenicity (mice [20]; mouse, in vivo) was “not carcinogenic” and the NOAEL (rats [21]; increased kidney weight at 140 ppm) was 40 ppm. The NOAEL (rats [21]; rat, in vivo) was 2.1 mg/kg bw/day, the carcinogenicity (rats [21]; rat, in vivo) was “not carcinogenic” and the “GS activity in the thalamus/hypothalamus” value (GS [22]) was “decreased”. For the same compound, the “GS activity in the cortex, hippocampus and thalamus/hypothalamus” value (GS [23]; one hour after PTZ administration) was “increased GS activity” and the “dose relation of the effects on GS activity” value (GS [23]; rat, in vivo) was “not proportional to the dose”.
